Experimental data as given in PubChem BioAssay AID1863 (Southern Research Specialized Biocontainment Screening …, 2009).
pIC50: −log10 of the molar value. Values joined by “and” are separate entries in the source; they are usually repeats but may differ in a detail not shown here. Equal entries are not always repeated.

Each molecule was assayed on S. Typhimurium PhoP-regulated promoter GFP reporter, 4 h (assay: PhoP-dependent GFP reporter repression – Salmonella Typhimurium, primary screen (AID 1863)).
Work on O=C(O)CSc1cc(NS(=O)(=O)c2cccc([N+](=O)[O-])c2)c2ccccc2c1O yielded a pIC50 of 3.88. Cc1cc(C(=O)N/N=C/c2ccc([N+](=O)[O-])s2)n[nH]1 was tested, and the pIC50 was 4.37. Molecule COc1cnc(-c2ccccn2)[nH]c1=O has a pIC50 of 4.26. Work on CNC[C@H](CC1CCCCC1)NC[C@H](Cc1ccccc1)NCCC12CC3CC(CC(C3)C1)C2 yielded a pIC50 of 4.74. For O=C(Cn1nc(CNc2ccc(Cl)cc2)[n+]2c1CCCCC2)c1ccc(Br)cc1, the pIC50 was 4.04. With Cc1ccc(C(=O)O)cc1N=Cc1cc(Br)cc(Br)c1O the pIC50 was 4.03. For O=C(Nc1ccccc1)Nc1ccc(Cl)c([N+](=O)[O-])c1, the pIC50 was 4.34. In the case of O=[N+]([O-])c1cc(CN2CCCC2)c2cccnc2c1O, the pIC50 was 4.15. With CCCCCCCCCCOC(=O)Cn1c(COc2ccc(OC)cc2)[n+](C)c2ccccc21 the pIC50 was 4.64 and 4.65. Molecule Nc1cc(Cl)c2nonc2c1[N+](=O)[O-] has a pIC50 of 4.24. With CCn1cc(C(=O)NCCO)c(=O)c2cc(F)c(N3CCN(C)CC3)cc21 the pIC50 was 4.65. COc1c(F)c(F)cc2c(=O)c(C(=O)O)cn(C3CC3)c12 gave a pIC50 of 4.43. Molecule CCn1cc(C(=O)O)c(=O)c2cc(F)c(N3CCN(C(=S)NC(=O)c4ccccc4C)CC3)cc21 has a pIC50 of 4.87. With CC(C(=O)c1ccc(-c2ccccc2)cc1)[n+]1cccc(NC(=O)c2ccccc2)c1 (stereo unspecified) the pIC50 was 4.11. CN(C)C1C(=O)C(C(N)=O)=C(O)C2(O)C(=O)C3=C(O)c4c(O)cccc4C(C)(O)C3C(O)C12 (stereo unspecified) was tested, and the pIC50 was 5.77. With CC(=O)N1CCN(c2cc3c(cc2F)c(=O)c(C(=O)O)cn3C2CC2)CC1 the pIC50 was 4.79. Molecule CCCCCCCCCCCCCCCC[N+](C)(C)C has a pIC50 of 4.46. For CC(=O)c1c(C)n([O-])c2cc(F)c(F)cc2[n+]1=O, the pIC50 was 3.89. CCCCN(CCCC)C(=O)c1cn(CC)c2cc(N3CCN(C)CC3)c(F)cc2c1=O was tested, and the pIC50 was 4.94. Work on Oc1c(CN2CCc3ccccc3C2)cc(Cl)c2cccnc12 yielded a pIC50 of 4.66. In the case of O=C(Nc1nnc(-c2cccs2)o1)c1cccc(Oc2ccccc2)c1, the pIC50 was 4.10. Work on Nc1ncn(C2O[C@H](CO)[C@@H](O)[C@H]2O)c(=O)n1 (stereo partly specified) yielded a pIC50 of 4.40. Cc1cc2nc3ccc(=[N+](C)C)cc-3sc2cc1N showed a pIC50 of 4.49. C[C@H]1c2cccc(O)c2C(O)=C2C(=O)[C@]3(O)C(O)=C(C(N)=O)C(=O)[C@@H](N(C)C)C3[C@@H](O)C21 (stereo partly specified) gave a pIC50 of 5.28. CNC[C@H](Cc1ccccc1)NC[C@@H](Cc1cccc2ccccc12)NCCc1ccc(C)cc1 gave a pIC50 of 4.57. Work on Cc1ccc(-c2c[n+](CC(=O)Nc3nc(-c4ccc(F)cc4)cs3)c3n2CCC3)cc1 yielded a pIC50 of 4.17. For COc1nsnc1NS(=O)(=O)c1ccc(NC(=S)NC(=O)c2cccnc2)cc1, the pIC50 was 3.94. Work on CCn1cc(C(=O)O)c(=O)c2cnc(N3CCNCC3)nc21 yielded a pIC50 of 4.53. In the case of Oc1cccc2ccc(Nc3ccccn3)nc12, the pIC50 was 4.72. Molecule CCCCCCCCNC(C)C(O)c1ccc(SC(C)C)cc1 (stereo unspecified) has a pIC50 of 4.12. In the case of OCCN1CCN(Cc2cc(Cl)c3cccnc3c2O)CC1, the pIC50 was 3.98. NC1CCN(c2c(F)cc3c(=O)c(C(=O)O)cn(C4CC4)c3c2Cl)C1 (stereo unspecified) gave a pIC50 greater than 6.64. For CN1CCN(c2c(F)cc3c(=O)c(C(=O)O)cn4c3c2SCC4)CC1, the pIC50 was 5.35 and 5.33. With CCn1cc(C(=O)O)c(=O)c2cc(F)c(N3CCN(C(=S)NC(=O)c4ccccc4)CC3)cc21 the pIC50 was 4.98. CCCC(=O)NC(c1cccs1)c1cc([N+](=O)[O-])c2cccnc2c1O (stereo unspecified) was tested, and the pIC50 was 4.42. With CO[C@@]1(NC(=O)C2SC(=C(C(N)=O)C(=O)O)S2)C(=O)N2C(C(=O)O)=C(CSc3nnnn3C)CS[C@@H]21 (stereo partly specified) the pIC50 was 4.80. Cc1ccc(S(=O)(=O)Nc2cc(Cl)c(O)c3ncccc23)cc1 showed a pIC50 of 4.28. With O=[N+]([O-])c1cc(O)c2ncccc2c1 the pIC50 was 4.55. Work on CC1CCc2cc(F)cc3c(=O)c(C(=O)O)cn1c23 (stereo unspecified) yielded a pIC50 of 5.23. Work on CC[C@@H](C)[C@H](CNC)NC[C@@H](Cc1cccc2ccccc12)NCCc1cccc(C(F)(F)F)c1 yielded a pIC50 of 4.48. For Cc1sc2ncnc(N/N=C/c3ccccc3O)c2c1C, the pIC50 was 4.08. With CO[C@H]1/C=C/O[C@@]2(C)Oc3c(C)c(O)c4c(O)c(c(C=NN5CCN(C)CC5)c(O)c4c3C2=O)NC(=O)/C(C)=C\C=C\[C@H](C)[C@H](O)[C@@H](C)[C@@H](O)[C@@H](C)[C@H](OC(C)=O)[C@@H]1C the pIC50 was 5.13. Work on NC(N)=NN=C1CCCCCCCCCCC1 yielded a pIC50 of 4.00. CCc1ccc(-c2nn(-c3ccccc3)cc2CSC(=N)N)cc1 was tested, and the pIC50 was 4.43. CCC(C)N1CCC2(CC1)N=c1c(c3c4c5c(C)c(O)c3c(O)c1=NC(=O)C(C)=CC=C[C@H](C)[C@H](O)[C@@H](C)[C@@H](O)[C@@H](C)[C@H](OC(C)=O)[C@H](C)[C@@H](OC)C=CO[C@@](C)(O5)C4=O)N2 (stereo partly specified) gave a pIC50 of 5.57. Clc1c(OCCCn2ccnc2)ccc2ccccc12 was tested, and the pIC50 was 4.03. In the case of C[C@H]1O[C@@H](n2cc(F)c(=O)[nH]c2=O)[C@H](O)[C@@H]1O, the pIC50 was 4.64. Work on CN(C)S(=O)(=O)c1cccc(NC(=S)N/N=C/c2cc(Br)ccc2O)c1 yielded a pIC50 of 4.16. In the case of CC[C@H]1OC(=O)C[C@@H](O)[C@H](C)[C@@H](O[C@@H]2O[C@H](C)C[C@H](N(C)C)[C@H]2O)[C@@H](CC=O)C[C@@H](C)C(=O)C=C[C@]2(C)O[C@H]2[C@@H]1C, the pIC50 was 4.74. CC[C@H]1OC(=O)[C@H](C)[C@@H](O[C@H]2C[C@@](C)(OC)[C@@H](O)[C@H](C)O2)[C@H](C)[C@@H](O[C@@H]2O[C@H](C)C[C@H](N(C)C)[C@H]2O)[C@](C)(O)C[C@@H](C)[C@@H]2N[C@@H](COCCOC)O[C@H]([C@H]2C)[C@]1(C)O was tested, and the pIC50 was 4.48. Cc1cc(C)c2ccc(N)nc2c1O was tested, and the pIC50 was 4.16.
